{"source": "ChEMBL document CHEMBL5696443", "about": "(Clin Cancer Res, 2016)", "key": {"[1]": {"target": "Casein kinase I isoform delta (Homo sapiens) (UniProt P48730)", "assay": "Inhibition of human CK1delta at 1 uM using KRRRAL[pS]VASLPGL as substrate in presence of [gamma33P]-ATP by HotSpot assay relative to control"}, "[2]": {"target": "Tyrosine-protein kinase Fes/Fps (Homo sapiens, UniProt P07332)", "assay": "Inhibition of human FES using poly (Glu, Tyr)4:1 as substrate in presence of [gamma33P]-ATP by HotSpot assay"}, "[3]": {"target": "Serine/threonine-protein kinase Chk2 (Homo sapiens, UniProt O96017)", "assay": "Inhibition of human CHEK2 using KKKVSRSGLYRSPSMPENLNRPR as substrate in presence of [gamma33P]-ATP by HotSpot assay"}, "[4]": {"target": "MAP/microtubule affinity-regulating kinase 3 (Homo sapiens, UniProt P27448)", "assay": "Inhibition of human MARK3 using KKKVSRSGLYRSPSMPENLNRPR as substrate in presence of [gamma33P]-ATP by HotSpot assay"}, "[5]": {"target": "Serine/threonine-protein kinase MARK1 (Homo sapiens, UniProt Q9P0L2)", "assay": "Inhibition of human MARK1 using KKKVSRSGLYRSPSMPENLNRPR as substrate in presence of [gamma33P]-ATP by HotSpot assay"}, "[6]": {"target": "Tyrosine-protein kinase HCK (Homo sapiens, UniProt P08631)", "assay": "Inhibition of human HCK using KVEKIGEGTYGVVYK as substrate in presence of [gamma33P]-ATP by HotSpot assay"}, "[7]": {"target": "Calcium/calmodulin-dependent protein kinase type 1D (Homo sapiens) (UniProt Q8IU85)", "assay": "Inhibition of human CAMK1D at 1 uM using KKALRRQETVDAL as substrate in presence of [gamma33P]-ATP by HotSpot assay relative to control"}, "[8]": {"target": "CDK6/cyclin D3 (Homo sapiens) (UniProt P30281+Q00534)", "assay": "Inhibition of human CDK6/CyclinD3 at 1 uM using RB protein as substrate in presence of [gamma33P]-ATP by HotSpot assay relative to control", "format": "protein-complex assay"}, "[9]": {"target": "Ephrin type-B receptor 2 (Homo sapiens) (UniProt P29323)", "assay": "Inhibition of human EPHB2 at 1 uM using poly (Glu, Tyr)4:1 as substrate in presence of [gamma33P]-ATP by HotSpot assay relative to control"}, "[10]": {"target": "Interleukin-1 receptor-associated kinase 4 (Homo sapiens) (UniProt Q9NWZ3)", "assay": "Inhibition of human IRAK4 at 1 uM using modified-CGRTGRRNSI-NH2 as substrate in presence of [gamma33P]-ATP by HotSpot assay relative to control"}, "[11]": {"target": "Dual specificity mitogen-activated protein kinase kinase 1 (Homo sapiens) (UniProt Q02750)", "assay": "Inhibition of human MAP2K1 at 1 uM using ERK2 as substrate in presence of [gamma33P]-ATP by HotSpot assay relative to control"}, "[12]": {"target": "Misshapen-like kinase 1 (Homo sapiens) (UniProt Q8N4C8)", "assay": "Inhibition of human MINK1 at 1 uM using MBP as substrate in presence of [gamma33P]-ATP by HotSpot assay relative to control"}, "[13]": {"target": "Muscle, skeletal receptor tyrosine-protein kinase (Homo sapiens) (UniProt O15146)", "assay": "Inhibition of human MUSK at 1 uM using MBP as substrate in presence of [gamma33P]-ATP by HotSpot assay relative to control"}, "[14]": {"target": "High affinity nerve growth factor receptor (Homo sapiens) (UniProt P04629)", "assay": "Inhibition of human NTRK1 at 1 uM using poly (Glu, Tyr)4:1 as substrate in presence of [gamma33P]-ATP by HotSpot assay relative to control"}, "[15]": {"target": "Serine/threonine-protein kinase PAK 2 (Homo sapiens) (UniProt Q13177)", "assay": "Inhibition of human PAK2 at 1 uM using RRRLSFAEPG as substrate in presence of [gamma33P]-ATP by HotSpot assay relative to control"}, "[16]": {"target": "Serine/threonine-protein kinase PAK 3 (Homo sapiens) (UniProt O75914)", "assay": "Inhibition of human PAK3 at 1 uM using RRRLSFAEPG as substrate in presence of [gamma33P]-ATP by HotSpot assay relative to control"}, "[17]": {"target": "Protein kinase C iota type (Homo sapiens) (UniProt P41743)", "assay": "Inhibition of human PRKCI at 1 uM using ERMRPRKRQGSVRRRV as substrate in presence of [gamma33P]-ATP by HotSpot assay relative to control"}, "[18]": {"target": "Serine/threonine-protein kinase STK11 (Homo sapiens) (UniProt Q15831)", "assay": "Inhibition of human STK11 at 1 uM using LSNLYHQGKFLQTFCGSPLYRRR as substrate in presence of [gamma33P]-ATP by HotSpot assay relative to control"}, "[19]": {"assay": "Average plasma concentration in human at 90 mg administered once a day", "format": "ADME", "details": "in vivo"}, "[20]": {"tested_on": "NCI-H2228", "assay": "Antitumor activity against ALK positive human NCI-H2228 cells xenografted in CB-17/SCID orthotopic brain tumor mouse model assessed as reduction in tumor burden in brain at 50 mg/kg, po administered daily and measured after 64 days by H&E staining based analysis", "format": "functional, organism-based", "details": "time 64.0 day"}, "[21]": {"target": "Insulin-like growth factor 1 receptor (Homo sapiens, UniProt P08069)", "description": "Inhibition of IGF-1R phosphorylation in IGF-1 stimulated human HepG2 cells preincubated with compound for 30 mins followed by IGF-1 stimulation for 10 mins by Immunoblot analysis"}, "[22]": {"tested_on": "NCI-H2228", "details": "time 72 hrs"}, "[23]": {"tested_on": "Protein cereblon/ALK tyrosine kinase receptor/Echinoderm microtubule-associated protein-like 4 (Homo sapiens), Q9UM73+Q9HC35+Q96SW2 [UNDEFINED MUTATION]", "details": "BaF3, time 72.0 hrs"}, "[24]": {"tested_on": "KARPAS-299", "details": "time 72 hrs"}, "[25]": {"tested_on": "EML4-ALK (Homo sapiens), Q9UM73+Q9HC35 [F1174C]", "details": "BaF3, dose 200.0 nmol/L, time 3-5 weeks"}, "[26]": {"tested_on": "EML4-ALK (Homo sapiens), Q9UM73+Q9HC35 [L1196M]", "details": "BaF3, dose 200.0 nmol/L, time 3-5 weeks"}, "[27]": {"tested_on": "EML4-ALK (Homo sapiens), Q9UM73+Q9HC35 [S1206A]", "details": "BaF3, dose 200.0 nmol/L, time 3-5 weeks"}, "[28]": {"tested_on": "EML4-ALK (Homo sapiens), Q9UM73+Q9HC35 [E1210K]", "details": "BaF3, dose 200.0 nmol/L, time 3-5 weeks"}, "[29]": {"tested_on": "EML4-ALK (Homo sapiens), Q9UM73+Q9HC35 [C1156Y]", "details": "BaF3, dose 500.0 nmol/L, time 3-5 weeks"}, "[30]": {"tested_on": "EML4-ALK (Homo sapiens), Q9UM73+Q9HC35 [F1174C]", "details": "BaF3, dose 500.0 nmol/L, time 3-5 weeks"}}, "note": "Activity calls are given as the source filed them. The calls are words filed in the database; no cut-off is given here."}
{"smiles": "COc1cc(N2CCC(N3CCN(C)CC3)CC2)ccc1Nc1ncc(Cl)c(Nc2ccccc2P(C)(C)=O)n1", "note": "[BRIGATINIB]", "values": [{"measurement": "inhibition", "setting": "[1]", "result": "< 90", "unit": "%"}, {"measurement": "IC50", "setting": "[2]", "result": 3.5, "unit": "nM"}, {"measurement": "IC50", "setting": "[3]", "result": 6.5, "unit": "nM"}, {"measurement": "IC50", "setting": "[4]", "result": 127, "unit": "nM"}, {"measurement": "IC50", "setting": "[5]", "result": 127, "unit": "nM"}, {"measurement": "IC50", "setting": "[6]", "result": 198, "unit": "nM"}, {"measurement": "inhibition", "setting": "[7]", "result": "< 90", "unit": "%"}, {"measurement": "inhibition", "setting": "[8]", "result": "< 90", "unit": "%"}, {"measurement": "inhibition", "setting": "[9]", "result": "< 90", "unit": "%"}, {"measurement": "inhibition", "setting": "[10]", "result": "< 90", "unit": "%"}, {"measurement": "inhibition", "setting": "[11]", "result": "< 90", "unit": "%"}, {"measurement": "inhibition", "setting": "[12]", "result": "< 90", "unit": "%"}, {"measurement": "inhibition", "setting": "[13]", "result": "< 90", "unit": "%"}, {"measurement": "inhibition", "setting": "[14]", "result": "< 90", "unit": "%"}, {"measurement": "inhibition", "setting": "[15]", "result": "< 90", "unit": "%"}, {"measurement": "inhibition", "setting": "[16]", "result": "< 90", "unit": "%"}, {"measurement": "inhibition", "setting": "[17]", "result": "< 90", "unit": "%"}, {"measurement": "inhibition", "setting": "[18]", "result": "< 90", "unit": "%"}, {"measurement": "Cave", "setting": "[19]", "result": 582, "unit": "nM"}, {"measurement": "Activity", "setting": "[20]", "result": "Active"}, {"measurement": "IC50", "setting": "[21]", "result": 148, "unit": "nM"}, {"measurement": "GI50", "setting": "[22]", "result": 10, "unit": "nM"}, {"measurement": "IC90", "setting": "[23]", "result": 38, "unit": "nM"}, {"measurement": "GI50", "setting": "[24]", "result": 10, "unit": "nM"}, {"measurement": "inhibition", "setting": "[25]", "result": "inactive"}, {"measurement": "inhibition", "setting": "[26]", "result": "inactive"}, {"measurement": "inhibition", "setting": "[27]", "result": "inactive"}, {"measurement": "inhibition", "setting": "[28]", "result": "inactive"}, {"measurement": "inhibition", "setting": "[29]", "result": "Active"}, {"measurement": "inhibition", "setting": "[30]", "result": "Active"}]}
